Test results as given in US20230092679A1, “MCL-1 INHIBITOR ANTIBODY-DRUG CONJUGATES AND METHODS OF USE” (NOVARTIS AG, priority 2019, published 2023).

Experiments:
Type in all cases: cell-based
[1] = system: molm16; test: In vitro ADC activity, AML cell lines, CellTiter-Glo (Example 20); conditions: molm16, 5 days
[2] = system: thp1; test: as above; conditions: thp1, 5 days
[3] = system: kasumi6; test: as above; conditions: kasumi6, 5 days
[4] = system: molm13; test: as above; conditions: molm13, 5 days
[5] = system: KMS-21 BM; test: CellTiter-Glo proliferation assay (Example 6); design: key: **: tested but curve did not converge; conditions: CD38 Mcl-1 ADCs and payload P1, 5 days
Method: (§1) Mcl-1 ADCs were tested on nine endogenous cancer cell lines and one isogenic cell line engineered to overexpress a target of interest. Six targets were assessed: HER2, BCMA, CD38, CD48, CD79b, and CD33.
(§2) Cell lines • HER2: HCC1954 (ATCC No. CRL-2338 cultured in RPMI-1640+10% FBS) and HCC2218 (ATCC No. CRL-2343 cultured in RPMI-1640+10% FBS). • BCMA: NCI-H929 (ATCC No. CRL-9068 cultured in RPMI-1640+10% FBS+0.05 mM 2-mercaptoethanol). • CD38: A4-Fuk (JCRB No. JCRB0097 cultured in RPMI-1640+10% FBS) and KMS-21 BM (JCRB No. JCRB1185 cultured in RPMI-1640+10% FBS). • CD48: NCI-H929 (ATCC No. CRL-9068 cultured in RPMI-1640+10% FBS+0.05 mM 2-mercaptoethanol), OPM-2 (DSMZ No. ACC-50 cultured in RPMI-1640+10% FBS) and AMO1 (DSMZ No. ACC-538 cultured in RPMI-1640+20% FBS). • CD79b: RS4;11 (ATCC No. CRL-1873 cultured in RPMI-1640+10% FBS). • CD33: MOLM-13 (DSMZ No. ACC-554 cultured in RPMI-1640+10% FBS) and an isogenic cell line, AMO1-CD33 clone D2. AMO1 cell line was transfected to generate a stable AMO1 cell line expressing the exogenous protein of interest, CD33, AMO1-CD33 clone D2 (cultured in RPMI-1640+20% FBS).
(§3) The ability of Mcl-1 ADCs to inhibit cell proliferation and survival was assessed using a Promega CellTiter-Glo® proliferation assay. Cell lines were cultured in media optimal for their growth at 5% CO2, 37° C. in a tissue culture incubator. Prior to seeding for the proliferation assay, the cells were split at least 2 days before the assay to ensure optimal growth density. On the day of seeding, adherent cells were lifted off tissue culture flasks using 0.25% trypsin. Cell viability and cell density were determined using a cell counter (Vi-Cell XR Cell Viability Analyzer, Beckman Coulter). […] Cells were seeded at a density of 1,000 cells per well in 45 μl of standard growth media. Plates were incubated at 5% CO2, 37° C. overnight in a tissue culture incubator. The next day, free Mcl-1 payload (P1), targeting Mcl-1 ADCs, and non-targeting isotype ADCs were prepared at 10× in standard growth media. The prepared drug treatments were then added to the cells resulting in final concentrations of 0.0005-500 nM and a final volume of 50 μl per well. Each drug concentration was tested in quadruplets. Plates were incubated at 5% CO2, 37° C. for 5 days in a tissue culture incubator, after which cell viability was assessed through the addition of 25 μl of CellTiter Glo® (Promega, Cat. No. G7573), a reagent which lyses cells and measures total adenosine triphosphate (ATP) content. Plates were incubated at room temperature for 10 minutes to stabilize luminescent signals prior to reading using a luminescence reader (EnVision Multilabel Plate Reader, PerkinElmer). […]

[6] = system: A4-Fuk; test: CellTiter-Glo proliferation assay (Example 6); design: key: **: tested but curve did not converge; conditions: CD38 Mcl-1 ADCs and payload P1, 5 days
Method: as §1, §2, §3

[7] = system: HCC1954; test: CellTiter-Glo proliferation assay (Example 6); conditions: HER2 Mcl-1 ADCs and payload P1, 5 days
Method: as §1, §2
(§4) The ability of Mcl-1 ADCs to inhibit cell proliferation and survival was assessed using a Promega CellTiter-Glo® proliferation assay. Cell lines were cultured in media optimal for their growth at 5% CO2, 37° C. in a tissue culture incubator. Prior to seeding for the proliferation assay, the cells were split at least 2 days before the assay to ensure optimal growth density. On the day of seeding, adherent cells were lifted off tissue culture flasks using 0.25% trypsin. Cell viability and cell density were determined using a cell counter (Vi-Cell XR Cell Viability Analyzer, Beckman Coulter). […] Cells were seeded at a density of 1,000 cells per well in 45 μl of standard growth media. Plates were incubated at 5% CO2, 37° C. overnight in a tissue culture incubator. The next day, free Mcl-1 payload (P1), targeting Mcl-1 ADCs, and non-targeting isotype ADCs were prepared at 10× in standard growth media. The prepared drug treatments were then added to the cells resulting in final concentrations of 0.0005-500 nM and a final volume of 50 μl per well. Each drug concentration was tested in quadruplets. Plates were incubated at 5% CO2, 37° C. for 5 days in a tissue culture incubator, after which cell viability was assessed through the addition of 25 μl of CellTiter Glo® (Promega, Cat. No. G7573), a reagent which lyses cells and measures total adenosine triphosphate (ATP) content. Plates were incubated at room temperature for 10 minutes to stabilize luminescent signals prior to reading using a luminescence reader (EnVision Multilabel Plate Reader, PerkinElmer). To evaluate the effect of the drug treatments, luminescent counts from wells containing untreated cells (100% viability) were used to normalize treated samples. A variable slope model was applied to fit a nonlinear regression curve to the data in GraphPad PRISM version 7.02 software. IC50 and Amax values were extrapolated from the resultant curves.

[8] = system: NCI-H929; test: CellTiter-Glo proliferation assay (Example 6); conditions: for Amax H929: in %; for IC50: Homo sapiens, NCI-H929, 120 h
Method: as §1, §2, §4

[9] = system: RS4;11; test: CellTiter-Glo proliferation assay (Example 6); conditions: CD79b Mcl-1 ADCs and payload P1, 5 days
Method: as §1, §2, §4

[10] = system: OPM-2; test: CellTiter-Glo proliferation assay (Example 6); conditions: CD48 Mcl-1 ADCs and payload P1, 5 days
Method: as §1, §2, §4

[11] = system: HCC2218; test: CellTiter-Glo proliferation assay (Example 6); conditions: HER2 Mcl-1 ADCs and payload P1, 5 days
Method: as §1, §2, §4

[12] = system: MOLM-13; test: CellTiter-Glo proliferation assay (Example 6); conditions: CD33 Mcl-1 ADCs and payload P1, 5 days
Method: as §1, §2, §4

[13] = system: 5340hx; test: In vitro ADC activity, AML cell lines, CellTiter-Glo (Example 20); conditions: 5 days
[14] = system: nomo1; test: as above; conditions: nomo1, 5 days
[15] = system: kasumi1; test: as above; conditions: kasumi1, 5 days
[16] = system: skm1; test: as above; conditions: skm1, 5 days
[17] = BCMA Mcl-1 ADCs (Table 29) and payload P1, 5 days
[18] = CD48 Mcl-1 ADCs (Table 25) and payload P1, 5 days

Compound `COc1ccccc1-c1nccc(COc2ccccc2C[C@@H](Oc2ncnc3sc(-c4ccc(F)cc4)c(-c4ccc(OCCN5CCN(C)CC5)c(Cl)c4C)c23)C(=O)O)n1` [P1, (2R)-2-[5-[3-chloro-2-methyl-4-[2-(4-methylpiperazin-1-yl)ethoxy]phenyl]-6-(4-fluorophenyl)thieno[2,3-d]pyrimidin-4-yl]oxy-3-[2-[[2-(2-methoxyphenyl)pyrimidin-4-yl]methoxy]phenyl]propanoic acid] has a GI50 ([1]; 120 h) of 45 nM, an Amax ([1]; in % (unit assumed)) of −76 and a GI50 ([2]; Homo sapiens, THP-1, 120 h) of 28 nM. For the same compound, the Amax ([2]; in % (unit assumed)) was −72, the GI50 ([3]; 120 h) was 4 nM and the Amax ([3]; in % (unit assumed)) was −96. The GI50 ([4]; Homo sapiens, MOLM-13, 120 h) was 2 nM, the Amax ([4]; in % (unit assumed)) was −54 and the “Amax KMS21 BM” value [5] was “**”. The “IC50 (nM) KMS21 BM” value [5] was “**”, the “Amax A4FUK” value [6] was “**” and the “IC50 (nM) A4FUK” value [6] was “**”. The Amax HCC1954 ([7]; unit assumed) was 64.8%, the IC50 ([7]; Homo sapiens, HCC1954, 120 h) was 63.5 nM and the “Amax H929” value [8, 17] was 89.16. For the same compound, the “Amax H929” value [8, 18] was 25.79, the IC50 [8, 17] was 5.61 nM and the IC50 [8, 18] was 0.394 nM. The “Amax RS; 411” value [9] was 132.40, the IC50 ([9]; Homo sapiens, RS4-11, 120 h, read-out: IC50 (nM) RS, 411) was 0.299 nM and the “Amax OPM2” value [10] was 22.97. For the same compound, the IC50 ([10]; Homo sapiens, OPM-2, 120 h, read-out: IC50 (nM) OPM2) was 0.136 nM, the “Amax HCC2218” value ([11]; in % (unit assumed)) was 100.40 and the IC50 ([11]; Homo sapiens, HCC2218, 120 h) was 14.1 nM. For the same compound, the “Amax MOLM13” value [12] was 128.80, the IC50 ([12]; Homo sapiens, MOLM-13, 120 h, read-out: IC50 (nM) MOLM13) was 2.44 nM and the GI50 ([13]; 120 h) was 1 nM. The Amax ([13]; in % (unit assumed)) was −92, the GI50 ([14]; Homo sapiens, NOMO-1, 120 h) was 1 nM and the Amax ([14]; in % (unit assumed)) was −80. The GI50 ([15]; Homo sapiens, Kasumi 1, 120 h) was 37 nM, the Amax ([15]; in % (unit assumed)) was −87 and the GI50 ([16]; Homo sapiens, SKM-1, 120 h) was 119 nM. The Amax ([16]; in % (unit assumed)) was −49.
